These results are taken from patent US20240299559A1, “COMPOUNDS THAT MEDIATE PROTEIN DEGRADATION AND METHODS OF USE THEREOF” (Monte Rosa Therapeutics, Inc., priority 2021, published 2024).

pKi: −log10 of the molar value.

One assay has as its target T1, CDK2 (Homo sapiens, UniProt P24941).
T1 construct: HEK293 clonal lines with CRISPR KI HiBiT tag on CDK2 proteins; host or cells: HEK293 clonal line with CRISPR knock-in HiBiT on CDK2, stably expressing LgBiT
The experiment in a line: CDK2 HiBiT assay (degradation, Dmax). It counts as cell-based. The conditions noted are these: HEK293 clonal lines with CRISPR KI HiBiT tag on CDK2, stably expressing LgBiT; 24 hours incubation. How it is done:
HEK293 clonal lines with CRISPR KI HiBiT tag on CDK2 proteins and stably expressing LgBiT protein were obtained from Promega (Madison, WI). Cells were plated at 5000 cells per well using Multiflo (BioTek) in 384-well white solid bottom plates (Corning, 3570BC) in 25 ul volume in DMEM media (DMEM, high glucose, HEPES, no phenol red (ThermoFisher Scientific, 21063029)) containing 10% FBS (Corning, 35-075-CV), 1% Penicillin/Streptomycin (ThermoFisher Scientific, 15140-122). Cells were incubated for 16 hours at 37° C., 5% CO2. 75 nL of a compound at 30 μM were dosed into the plate using an Echo® 650 liquid handler (Labcyte). Cells were incubated at 37° C., 5% CO2 for 24 hours. 5 ul of HiBiT Lysis Reagent (Promega, N3030) is added using Combi Multidrop (ThermoFisher Scientific), plates are incubated for 15′ at 37° C., 5% CO2 and then signal was read on a Pherastar FSX using “LUM plus” optic module.
Analysis was performed in Scinamic (Scinamic, Cambridge, MA). Luminescence response (R) was calculated by the formula: response=100*(S−N)/(P−N) where S is the signal of the well, N and P the mean negative and positive control values respectively of the same plate. The luminescence response was then fitted in Scinamic using a 3-parameter agonist logistic fit (hillslope=1, EC50>0, top/bottom unconstrained).

In a further assay the target is CRBN-DDB1 (Homo sapiens, UniProt Q96SW2). The experiment in a line: Compound binding to CRBN by HTRF assay. The conditions noted are these: CRBN-DDB1 2.5 nM, Cy5-Thalidomide 100 nM probe; Ki from geometric mean of IC50 by Cheng-Prustoff transformation. How it is done: Compound activity was monitored in a Homogenous Time-Resolved Fluorescence (HTRF) assay using 1-[5-({2-[2-(2-{[2-(2,6-dioxopiperidin-3-yl)-1,3-dioxo-2,3-dihydro-1H-isoindol-4-yl]oxy}acetamido)ethoxy]ethyl}carbamoyl)pentyl]-3,3-dimethyl-2-[(1E,3E)-5-[(2E)-1,3,3-trimethyl-5-sulfo-2,3-dihydro-1H-indol-2-ylidene]penta-1,3-dien-1-yl]-3H-indol-1-ium-5-sulfonate as a fluorescent probe. Biochemical assays were conducted in Greiner white 384 well HiBase plates (Cat. No 784075-25) in 10 μL total volume. A one pot detection solution of CRBN-DDB1 (2.5 nM), Anti-His Terbium Cryptate Gold (1×, PerkinElmer Cat. #: 61HI2TLB), and Cy5-Thalidomide (100 nM, Tenova Cat.: T52461) was prepared in 20 mM HEPES, 20 mM NaCl, 0.2 mM TCEP, 0.2 mM EDTA, and 0.005% Tween20 was dispensed to each assay plate. Compounds were stored in dry, ambient temperatures at 10 mM. A 10-point, 1:3 dilution series was prepared from 10 mM stock concentrations in Echo-compatible LDV plates. 10 nL of each compound dilution series was dispensed into assays wells using an Echo 650 (Labcyte inc. USA). 10 nL of 10 mM Lenalidomide was transferred into the active-control wells for the assay and 10 nL of DMSO was transferred into the neutral-control wells. The assay was then allowed to incubate for 30 min at ambient temperature after transferring compound. Plate measurements were taken on a Pherastar FSX (BMG Labtech, Germany) using the HTRF Red filter (Ex. 337 nm, em1:620 nm, em2:665 nm) (Flashes: 50, Integration time: 60-400 us, Z-height: 10 mm, Ratio-multipler: 10,000). The HTRF signal was then subsequently normalized to the neutral and active controls. Analysis and IC50 values were derived using KNIME analytics (KNIME Zurich) transformation and fitting within Collaborative Drug Discovery (Collaborative Drug Discovery USA). Ki was derived from the geometric mean of the IC50 values using the Cheng-Prustoff transformation.
On the technique in general: Time-resolved FRET reads energy transfer from a long-lived donor to a nearby acceptor.

Sequence of CRBN-DDB1 (Q96SW2 whole entry): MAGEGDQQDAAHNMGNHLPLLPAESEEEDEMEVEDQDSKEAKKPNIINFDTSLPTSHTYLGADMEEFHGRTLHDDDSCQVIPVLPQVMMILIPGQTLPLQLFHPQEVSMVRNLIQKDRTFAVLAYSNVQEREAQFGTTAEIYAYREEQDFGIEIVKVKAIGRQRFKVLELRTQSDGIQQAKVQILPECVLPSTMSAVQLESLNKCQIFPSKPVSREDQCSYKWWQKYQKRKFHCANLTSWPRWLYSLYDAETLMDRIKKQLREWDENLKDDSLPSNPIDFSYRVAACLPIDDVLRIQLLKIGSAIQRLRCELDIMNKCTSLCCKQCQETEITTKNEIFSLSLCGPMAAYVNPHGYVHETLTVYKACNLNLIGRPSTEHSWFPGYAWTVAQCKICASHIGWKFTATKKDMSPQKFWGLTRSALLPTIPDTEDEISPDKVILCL
Sequence of CRBN-DDB1 (Q16531 whole entry partner): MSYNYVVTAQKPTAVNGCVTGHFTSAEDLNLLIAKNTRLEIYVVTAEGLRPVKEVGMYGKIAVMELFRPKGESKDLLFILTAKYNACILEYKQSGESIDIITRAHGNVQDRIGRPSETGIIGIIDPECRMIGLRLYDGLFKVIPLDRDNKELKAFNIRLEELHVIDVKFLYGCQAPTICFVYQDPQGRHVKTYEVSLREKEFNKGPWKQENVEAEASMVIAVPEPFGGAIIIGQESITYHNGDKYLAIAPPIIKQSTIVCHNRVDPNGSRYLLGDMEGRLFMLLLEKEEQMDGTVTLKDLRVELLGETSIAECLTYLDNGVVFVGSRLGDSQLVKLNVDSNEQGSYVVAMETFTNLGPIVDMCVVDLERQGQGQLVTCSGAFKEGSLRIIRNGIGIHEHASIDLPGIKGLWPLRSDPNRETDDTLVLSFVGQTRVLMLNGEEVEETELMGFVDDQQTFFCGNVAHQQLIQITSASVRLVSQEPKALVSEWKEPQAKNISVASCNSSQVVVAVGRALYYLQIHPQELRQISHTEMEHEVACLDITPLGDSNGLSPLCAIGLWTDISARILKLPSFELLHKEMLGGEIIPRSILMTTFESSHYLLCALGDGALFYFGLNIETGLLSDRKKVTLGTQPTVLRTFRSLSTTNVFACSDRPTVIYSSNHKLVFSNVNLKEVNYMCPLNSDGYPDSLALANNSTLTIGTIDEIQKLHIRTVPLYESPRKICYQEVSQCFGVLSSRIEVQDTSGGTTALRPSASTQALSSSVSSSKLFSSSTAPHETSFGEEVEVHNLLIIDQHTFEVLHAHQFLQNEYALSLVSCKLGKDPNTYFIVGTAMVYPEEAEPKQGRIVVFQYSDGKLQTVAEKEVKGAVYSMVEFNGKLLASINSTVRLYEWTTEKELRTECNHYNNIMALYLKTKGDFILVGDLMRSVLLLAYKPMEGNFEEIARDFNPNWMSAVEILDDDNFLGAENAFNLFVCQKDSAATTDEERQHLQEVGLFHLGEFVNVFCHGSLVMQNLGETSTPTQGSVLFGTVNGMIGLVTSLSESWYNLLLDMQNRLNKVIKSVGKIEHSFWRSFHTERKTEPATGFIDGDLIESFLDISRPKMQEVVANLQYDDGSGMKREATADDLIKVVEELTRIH

As to `CC[C@H](Cc1ccccc1)OC(=O)NCc1ccc2c(c1)C(=O)N(C1CCC(=O)NC1=O)C2` (stereo partly drawn) [Compound 68, (2R)-1-phenylbutan-2-yl N-{[2-(2,6-dioxopiperidin-3-yl)-3-oxo-2,3-dihydro-1H-isoindol-5-yl]methyl}carbamate], on CDK2, the greatest degradation seen (Dmax) (usually the largest share of the target that was removed) was not above 10%. The negative logarithm of the Ki (pKi) (in general, the Ki on a negative log10 scale, so that one unit is a factor of ten) on CRBN-DDB1 is 6.00 to 7.00.
Compound `O=C1CCC(N2Cc3ccc(CNC(=O)OCc4cccc(-c5cccnc5)c4)cc3C2=O)C(=O)N1` (stereo not shown) [Compound 15, 3-(pyridin-3-yl)benzyl ((2-(2,6-dioxopiperidin-3-yl)-3-oxoisoindolin-5-yl)methyl)carbamate] gave a maximal degradation (Dmax) on CDK2 of 10 to 50%. At CRBN-DDB1, the pKi was not below 7.00.
The like results for `O=C1CCC(N2Cc3ccc(COC(=O)NCc4ccc(OC5CCOCC5)nc4)cc3C2=O)C(=O)N1` (stereo not shown) [Compound 2, (2-(2,6-dioxopiperidin-3-yl)-3-oxoisoindolin-5-yl)methyl((6-((tetrahydro-2H-pyran-4-yl)oxy)pyridin-3-yl)methyl)carbamate] were, in that order, 10 to 50% and 6.00 to 7.00.
At CDK2, `O=C1CCC(N2Cc3ccc(CNC(=O)OCc4cc(-c5ccccc5)ccn4)cc3C2=O)C(=O)N1` (stereo not shown) [Compound 14, (4-phenylpyridin-2-yl)methyl ((2-(2,6-dioxopiperidin-3-yl)-3-oxoisoindolin-5-yl)methyl)carbamate] yielded a Dmax of 10 to 50%. At CRBN-DDB1, this compound had a pKi of 6.00 to 7.00.
`O=C1CCC(N2Cc3ccc(CNC(=O)OCc4ccc(C5(F)COC5)cc4)cc3C2=O)C(=O)N1` (stereo not shown) [Compound 48, [4-(3-fluorooxetan-3-yl)phenyl]methyl N-{[2-(2,6-dioxopiperidin-3-yl)-3-oxo-2,3-dihydro-1H-isoindol-5-yl]methyl}carbamate]: the Dmax at CDK2 is 10 to 50%. The pKi at CRBN-DDB1 was not below 7.00.
In the same order, the values of `Cc1ccc(-c2cccc(COC(=O)NCc3ccc4c(c3)C(=O)N(C3CCC(=O)NC3=O)C4)c2)cc1` (stereo not shown) [Compound 7, (4′-methyl-[1,1′-biphenyl]-3-yl)methyl ((2-(2,6-dioxopiperidin-3-yl)-3-oxoisoindolin-5-yl)methyl)carbamate] are 10 to 50% and 6.00 to 7.00.
In the same order, the values of `COc1ccc(COC(=O)NCc2ccc3c(c2)C(=O)N(C2CCC(=O)NC2=O)C3)cc1C(C)C` (stereo not shown) [Compound 47, [4-methoxy-3-(propan-2-yl)phenyl]methyl N-{[2-(2,6-dioxopiperidin-3-yl)-3-oxo-2,3-dihydro-1H-isoindol-5-yl]methyl}carbamate] are 10 to 50% and not below 7.00.
In the same order, the values of `O=C1CCC(N2Cc3ccc(CNC(=O)OCc4ccc(C5CC5)cc4)cc3C2=O)C(=O)N1` (stereo not shown) [Compound 64, (4-cyclopropylphenyl)methyl N-{[2-(2,6-dioxopiperidin-3-yl)-3-oxo-2,3-dihydro-1H-isoindol-5-yl]methyl}carbamate] are 10 to 50% and 6.00 to 7.00.
In the case of `O=C1CCC(N2Cc3ccc(CNc4nnc(-c5ccccc5)o4)cc3C2=O)C(=O)N1` (stereo not shown) [Compound 72, 3-(1-oxo-6-(((5-phenyl-1,3,4-oxadiazol-2-yl)amino)methyl)isoindolin-2-yl)piperidine-2,6-dione], the Dmax at CDK2 lay in the range of 10 to 50%. This compound also gave a pKi at CRBN-DDB1 not below 7.00.
On CDK2, `O=C1CCC(N2Cc3ccc(CNC(=O)OCc4ccnc(-c5ccc(F)cc5)c4)cc3C2=O)C(=O)N1` (stereo not shown) [Compound 5, (2-(4-fluorophenyl)pyridin-4-yl)methyl((2-(2,6-dioxopiperidin-3-yl)-3-oxoisoindolin-5-yl)methyl)carbamate] yielded a maximal degradation (Dmax) of 10 to 50%. Further, the negative-log Ki (pKi) on CRBN-DDB1 was 6.00 to 7.00.
On to `C#CCOc1ccc(COC(=O)NCc2ccc3c(c2)C(=O)N(C2CCC(=O)NC2=O)C3)cc1` (stereo not shown) [Compound 39, [4-(prop-2-yn-1-yloxy)phenyl]methyl N-{[2-(2,6-dioxopiperidin-3-yl)-3-oxo-2,3-dihydro-1H-isoindol-5-yl]methyl}carbamate], for which, at CDK2, the greatest degradation seen (Dmax) fell in the range of 10 to 50%. The compound further showed a negative-log Ki (pKi) on CRBN-DDB1 not below 7.00.
The like results for `O=C1CCC(N2Cc3ccc(CNC(=O)OCc4ccc(OCC5CC5)cc4)cc3C2=O)C(=O)N1` (stereo not shown) [Compound 40, [4-(cyclopropylmethoxy)phenyl]methyl N-{[2-(2,6-dioxopiperidin-3-yl)-3-oxo-2,3-dihydro-1H-isoindol-5-yl]methyl}carbamate] were, in that order, 10 to 50% and not below 7.00.
The like results for `Cc1ncsc1-c1ccc(COC(=O)NCc2ccc3c(c2)C(=O)N(C2CCC(=O)NC2=O)C3)cc1` (stereo not shown) [Compound 52, [4-(4-methyl-1,3-thiazol-5-yl)phenyl]methyl N-{[2-(2,6-dioxopiperidin-3-yl)-3-oxo-2,3-dihydro-1H-isoindol-5-yl]methyl}carbamate] were, in that order, 10 to 50% and not below 7.00.
Turning to `O=C1CCC(N2Cc3ccc(CNC(=O)OCc4ccc(OC5CCOCC5)nc4)cc3C2=O)C(=O)N1` (stereo not shown) [Compound 65, [6-(oxan-4-yloxy)pyridin-3-yl]methyl N-{[2-(2,6-dioxopiperidin-3-yl)-3-oxo-2,3-dihydro-1H-isoindol-5-yl]methyl}carbamate], the maximal degradation (Dmax) on CDK2 fell in the range of 10 to 50%. This compound showed a pKi at CRBN-DDB1 not below 7.00.
`CC(C)(c1ccc(COC(=O)NCc2ccc3c(c2)C(=O)N(C2CCC(=O)NC2=O)C3)cc1)C(F)(F)F` (stereo not shown) [Compound 63, [4-(1,1,1-trifluoro-2-methylpropan-2-yl)phenyl]methyl N-{[2-(2,6-dioxopiperidin-3-yl)-3-oxo-2,3-dihydro-1H-isoindol-5-yl]methyl}carbamate]: at CDK2, the Dmax fell in the range of 10 to 50%. This compound gave a negative logarithm of the Ki (pKi) on CRBN-DDB1 not below 7.00.
Take `O=C1CCC(N2Cc3ccc(CNC(=O)OCc4cccc(-c5ccc(Cl)cc5)c4)cc3C2=O)C(=O)N1` (stereo not shown) [Compound 8, (4′-chloro-[1,1′-biphenyl]-3-yl)methyl ((2-(2,6-dioxopiperidin-3-yl)-3-oxoisoindolin-5-yl)methyl)carbamate]: the maximal degradation (Dmax) on CDK2 was 10 to 50%. The compound also showed a negative-log Ki (pKi) on CRBN-DDB1 of 6.00 to 7.00.
The like results for `O=C1CCC(N2Cc3ccc(CNc4nnc(-c5ccc(OC(F)(F)F)cc5)o4)cc3C2=O)C(=O)N1` (stereo not shown) [Compound 71, 3-(1-oxo-6-(((5-(4-(trifluoromethoxy)phenyl)-1,3,4-oxadiazol-2-yl)amino)methyl)isoindolin-2-yl)piperidine-2,6-dione] were, in that order, 50 to 80% and 6.00 to 7.00.
In the same order, the values of `O=C1CCC(N2Cc3ccc(CNC(=O)OCc4cccc(-c5ccc(F)cc5)n4)cc3C2=O)C(=O)N1` (stereo not shown) [Compound 4, (6-(4-fluorophenyl)pyridin-2-yl)methyl((2-(2,6-dioxopiperidin-3-yl)-3-oxoisoindolin-5-yl)methyl)carbamate] are 10 to 50% and 6.00 to 7.00.
In the same order, the values of `O=C1CCC(N2Cc3ccc(CNC(=O)OCc4ccc(OCC(F)(F)F)nc4)cc3C2=O)C(=O)N1` (stereo not shown) [Compound 61, [6-(2,2,2-trifluoroethoxy)pyridin-3-yl]methyl N-{[2-(2,6-dioxopiperidin-3-yl)-3-oxo-2,3-dihydro-1H-isoindol-5-yl]methyl}carbamate] are 10 to 50% and not below 7.00.
Compound `O=C1CCC(N2Cc3ccc(CNC(=O)OCc4ccc(C#CC(F)(F)F)cc4)cc3C2=O)C(=O)N1` (stereo not shown) [Compound 50, [4-(3,3,3-trifluoroprop-1-yn-1-yl)phenyl]methyl N-{[2-(2,6-dioxopiperidin-3-yl)-3-oxo-2,3-dihydro-1H-isoindol-5-yl]methyl}carbamate] yielded a maximal degradation (Dmax) at CDK2 of 10 to 50%. The compound further had a pKi at CRBN-DDB1 of 6.00 to 7.00.
